Reference: ChEMBL document CHEMBL4041541, “Solvent free, catalyst free, microwave or grinding assisted synthesis of bis-cyclic imide derivatives and their evaluation for anticancer activity” (Bioorg Med Chem Lett, 2017)

Tests used:
[1] = system: NCI-H522; experiment: Growth inhibition of human NCI-H522 cells at 1 x 10^-5 M after 24 hrs by MTT assay relative to control; type: functional; details: NCI-H522, 24 h, read-out: GI
[2] = system: T47D; experiment: Growth inhibition of human T47D cells at 1 x 10^-5 M after 24 hrs by MTT assay relative to control; type: functional; details: read-out: GI
[3] = system: HCT-15; experiment: Growth inhibition of human HCT15 cells at 1 x 10^-5 M after 24 hrs by MTT assay relative to control; type: functional; details: HCT-15, 24 h, read-out: GI
[4] = system: PA-1; experiment: Growth inhibition of human PA1 cells at 1 x 10^-5 M after 24 hrs by MTT assay relative to control; type: functional; details: PA-1, 24 h, read-out: GI
[5] = system: HepG2; experiment: Growth inhibition of human HepG2 cells at 1 x 10^-5 M after 24 hrs by MTT assay relative to control; type: functional; details: HepG2, 24 h, read-out: GI
[6] = system: HEK-293T; experiment: Growth inhibition of HEK293T cells after 24 hrs by MTT assay; type: cell-based; details: Homo sapiens
[7] = system: HepG2; experiment: Growth inhibition of human HepG2 cells after 24 hrs by MTT assay; type: functional, cell-based; details: HepG2, 24 h
[8] = system: NCI-H522; experiment: Growth inhibition of human NCI-H522 cells after 24 hrs by MTT assay; type: functional, cell-based; details: NCI-H522, 24 h
[9] = system: T47D; experiment: Growth inhibition of human T47D cells after 24 hrs by MTT assay; type: functional, cell-based
[10] = system: HCT-15; experiment: Growth inhibition of human HCT15 cells after 24 hrs by MTT assay; type: functional, cell-based; details: HCT-15, 24 h
[11] = Selectivity index, ratio of IC50 for HEK293T cells to IC50 for human T47D cells; type: functional
[12] = Selectivity index, ratio of IC50 for HEK293T cells to IC50 for human HepG2 cells; type: functional
[13] = system: PA-1; experiment: Growth inhibition of human PA1 cells after 24 hrs by MTT assay; type: functional, cell-based; details: PA-1, 24 h
[14] = Selectivity index, ratio of IC50 for HEK293T cells to IC50 for human NCI-H522 cells; type: functional
[15] = Selectivity index, ratio of IC50 for HEK293T cells to IC50 for human HCT15 cells; type: functional
[16] = Selectivity index, ratio of IC50 for HEK293T cells to IC50 for human PA1 cells; type: functional

| SMILES | inhibition of growth at 10 µM [1] [%] | inhibition of growth at 10 µM [2] [%] | inhibition of growth at 10 µM [3] [%] | inhibition of growth at 10 µM [4] [%] | inhibition of growth at 10 µM [5] [%] | IC50 [6] [µM] | IC50 [7] [µM] | IC50 [8] [µM] | IC50 [9] [µM] | IC50 [10] [µM] | Ratio IC50 [11] | Ratio IC50 [12] | IC50 [13] [µM] | Ratio IC50 [14] | Ratio IC50 [15] | Ratio IC50 [16] |
| --- | --- | --- | --- | --- | --- | --- | --- | --- | --- | --- | --- | --- | --- | --- | --- | --- |
| O=C1C2CCCCC2C(=O)N1CCCC1OCC2(CO1)COC(CCCN1C(=O)C3CCCCC3C1=O)OC2 (stereo not given) | 28 | 11 | 21 | 15 | 13 |  |  |  |  |  |  |  |  |  |  |  |
| O=C1Cc2ccccc2C(=O)N1CCCC1OCC2(CO1)COC(CCCN1C(=O)Cc3ccccc3C1=O)OC2 (stereo not given) | 0 | 1 | 12 | 0 | 5 |  |  |  |  |  |  |  |  |  |  |  |
| O=C1CNCC(=O)N1CCCN1CCN(CCCN2C(=O)CNCC2=O)CC1 | 19 | 24 | 14 | 29 | 21 |  |  |  |  |  |  |  |  |  |  |  |
| O=C1CNCC(=O)N1CCOCCOCCN1C(=O)CNCC1=O | 3 | 1 | 0 | 0 | 0 |  |  |  |  |  |  |  |  |  |  |  |
| O=C1c2nccnc2C(=O)N1CCN1C(=O)c2nccnc2C1=O | 30 | 11 | 39 | 4 | 7 |  |  |  |  |  |  |  |  |  |  |  |
| O=P1(N(CCCl)CCCl)NCCCO1 (stereo not given) [CYCLOPHOSPHAMIDE ANHYDROUS] | 11 | 23 | 10 | 24 | 22 | > 100 | 52.3 | 69.9 | 69 | 76.3 |  |  |  |  |  |  |
| CC(CN1C(=O)c2nccnc2C1=O)N1C(=O)c2nccnc2C1=O (stereo not given) | 4 | 6 | 21 | 1 | 1 |  |  |  |  |  |  |  |  |  |  |  |
| O=c1[nH]cc(F)c(=O)[nH]1 [FLUOROURACIL] | 27 | 24 | 12 | 7 | 17 | > 100 | 32.9 | 55.6 |  |  |  |  |  |  |  |  |
| O=C1c2nccnc2C(=O)N1CCCN1CCN(CCCN2C(=O)c3nccnc3C2=O)CC1 | 19 | 15 | 10 | 18 | 20 |  |  |  |  |  |  |  |  |  |  |  |
| O=C1C2CC=CCC2C(=O)N1c1ccc(S(=O)(=O)c2ccc(N3C(=O)C4CC=CCC4C3=O)cc2)cc1 (stereo not given) | 56 | 41 | 51 | 41 | 19 | 42.2 | 18.3 | 37.1 | 31.1 | 14.4 | 2.5 - 4.5 | 2.5 - 4.5 | 32.1 | 2.5 - 4.5 | 2.5 - 4.5 | 2.5 - 4.5 |
| O=C1c2nccnc2C(=O)N1CCCC1OCC2(CO1)COC(CCCN1C(=O)c3nccnc3C1=O)OC2 (stereo not given) | 43 | 49 | 35 | 20 | 53 | 55.9 | 12.4 | 28.2 | 20.1 | 22.7 | 2.5 - 4.5 | 2.5 - 4.5 | 43.7 | 2.5 - 4.5 | 2.5 - 4.5 | 2.5 - 4.5 |
| O=C1Cc2ccccc2C(=O)N1CCOCCOCCN1C(=O)Cc2ccccc2C1=O | 5 | 1 | 0 | 0 | 1 |  |  |  |  |  |  |  |  |  |  |  |
| O=C1c2nc[nH]c2C(=O)N1CCCN1C(=O)c2nc[nH]c2C1=O | 10 | 35 | 21 | 17 | 34 |  |  |  |  |  |  |  |  |  |  |  |
| O=C1Cc2ccccc2C(=O)N1CCCN1CCN(CCCN2C(=O)Cc3ccccc3C2=O)CC1 | 6 | 5 | 1 | 0 | 7 |  |  |  |  |  |  |  |  |  |  |  |
| O=C1C2CCCCC2C(=O)N1CCCN1CCN(CCCN2C(=O)C3CCCCC3C2=O)CC1 (stereo not given) | 9 | 11 | 8 | 6 | 19 |  |  |  |  |  |  |  |  |  |  |  |
| O=C1c2nccnc2C(=O)N1CCOCCOCCN1C(=O)c2nccnc2C1=O | 35 | 39 | 47 | 38 | 6 |  |  |  |  |  |  |  |  |  |  |  |

| SMILES | inhibition of growth at 10 µM [1] [%] | inhibition of growth at 10 µM [2] [%] | inhibition of growth at 10 µM [3] [%] | inhibition of growth at 10 µM [4] [%] | inhibition of growth at 10 µM [5] [%] | IC50 [6] [µM] | IC50 [7] [µM] | IC50 [8] [µM] | IC50 [9] [µM] | IC50 [10] [µM] | Ratio IC50 [11] | Ratio IC50 [12] | IC50 [13] [µM] | Ratio IC50 [14] | Ratio IC50 [15] | Ratio IC50 [16] |
| --- | --- | --- | --- | --- | --- | --- | --- | --- | --- | --- | --- | --- | --- | --- | --- | --- |
| O=C1c2nc[nH]c2C(=O)N1CCOCCOCCN1C(=O)c2nc[nH]c2C1=O | 32 | 37 | 27 | 19 | 49 |  |  |  |  |  |  |  |  |  |  |  |
| O=C1CNCC(=O)N1CCCN1C(=O)CNCC1=O | 30 | 31 | 2 | 19 | 35 |  |  |  |  |  |  |  |  |  |  |  |
| O=C1Cc2ccccc2C(=O)N1CCN1C(=O)Cc2ccccc2C1=O | 16 | 8 | 6 | 9 | 4 |  |  |  |  |  |  |  |  |  |  |  |
| O=C1c2nccnc2C(=O)N1CCCN1C(=O)c2nccnc2C1=O | 0 | 13 | 5 | 16 | 1 |  |  |  |  |  |  |  |  |  |  |  |
| CC(CN1C(=O)CNCC1=O)N1C(=O)CNCC1=O (stereo not given) | 16 | 20 | 12 | 3 | 22 |  |  |  |  |  |  |  |  |  |  |  |
| O=C1CNCC(=O)N1CCN1C(=O)CNCC1=O | 30 | 38 | 30 | 20 | 15 |  |  |  |  |  |  |  |  |  |  |  |
| CC(CN1C(=O)Cc2ccccc2C1=O)N1C(=O)Cc2ccccc2C1=O (stereo not given) | 16 | 26 | 11 | 3 | 21 |  |  |  |  |  |  |  |  |  |  |  |
| O=C1C2CC=CCC2C(=O)N1CCCC1OCC2(CO1)COC(CCCN1C(=O)C3CC=CCC3C1=O)OC2 (stereo not given) | 19 | 39 | 11 | 7 | 25 |  |  |  |  |  |  |  |  |  |  |  |
| O=C1CNCC(=O)N1CCCC1OCC2(CO1)COC(CCCN1C(=O)CNCC1=O)OC2 (stereo not given) | 25 | 31 | 21 | 12 | 37 |  |  |  |  |  |  |  |  |  |  |  |
| C[C@@H]1C[C@@H]([C@H](O)CC2CC(=O)NC(=O)C2)C(=O)[C@@H](C)C1 [CYCLOHEXIMIDE] | 18 | 23 | 21 | 33 | 21 | > 100 | 55.1 | 62.1 |  | 52.3 |  |  |  |  |  |  |
| O=C1Cc2ccccc2C(=O)N1CCCN1C(=O)Cc2ccccc2C1=O | 1 | 11 | 7 | 15 | 5 |  |  |  |  |  |  |  |  |  |  |  |
| O=C1c2nc[nH]c2C(=O)N1CCCN1CCN(CCCN2C(=O)c3nc[nH]c3C2=O)CC1 | 2 | 0 | 0 | 0 | 1 |  |  |  |  |  |  |  |  |  |  |  |
| CC(CN1C(=O)c2nc[nH]c2C1=O)N1C(=O)c2nc[nH]c2C1=O (stereo not given) | 3 | 32 | 30 | 20 | 36 |  |  |  |  |  |  |  |  |  |  |  |
| O=C1C2CCCCC2C(=O)N1CCOCCOCCN1C(=O)C2CCCCC2C1=O (stereo not given) | 29 | 31 | 51 | 25 | 37 | > 100 | 27.5 | 32.4 | 15.9 | 23.8 |  |  | 19 |  |  |  |
| O=C1c2nc[nH]c2C(=O)N1CCCC1OCC2(CO1)COC(CCCN1C(=O)c3nc[nH]c3C1=O)OC2 (stereo not given) | 27 | 19 | 11 | 15 | 31 |  |  |  |  |  |  |  |  |  |  |  |
| O=C1C2CC=CCC2C(=O)N1CCCN1CCN(CCCN2C(=O)C3CC=CCC3C2=O)CC1 (stereo not given) | 37 | 29 | 18 | 10 | 39 |  |  |  |  |  |  |  |  |  |  |  |
